# Laboratory results taken from patent US10675267B2, “Methods for detection and eradication of myeloid leukemia stem cells” (priority 2015, dated 2020).
# Entries after “also recorded” stand apart in the source; their conditions may differ.
# Assays:
# [1] = tested on: pFlare splicing reporter (MAPT exon 10) in HEK293 cells; assay: Dual fluorescence (RFP/GFP) alternative splicing reporter (pFlare) assay; format: cell-based
# Experimental: For evaluation of in vitro splicing activity using a two-color fluorescent splicing reporter system, HEK293T cells (mycoplasma-free authenticated cell lines obtained from ATCC) were grown in complete media (DMEM+10% FBS) and transfected with a series of fluorescent protein-expressing plasmids. Vector controls include pFlare5A, which expresses solely GFP, and pFlare5G, which expresses maximal RFP. The pFlare reporter contains microtubule-associated protein tau (MAPT) exon 10 as an indicator of alternative splicing. Under physiological conditions, the pFlare conditional reporter vector allows in-frame expression of GFP but not RFP. In the presence of splicing inhibitors, exon skipping favors production of RFP over GFP. […] Fluorescence was evaluated on a Leica fluorescent microscope (Sanford Consortium Stem Cell Core facility) and then analyzed by flow cytometry on a Miltenyi MACSQUANT® to assess transfection efficiency (ranging from over 70% at 24 hrs after transfection to approximately 20% at 48 hrs after transfection) and mean fluorescence intensity (MFI) of RFP and GFP in positive cells. In HEK293 cells transiently transfected with control GFP or RFP vectors, or the pFlare splicing reporter vector, the dynamic range of the assay as measured by MFI of GFP and RFP 48 hours after transfection ranged from 0.41-1.69 for RFP/GFP ratios (FIG. 6A). […]
# [2] = Mouse weights over the two-week treatment period (tolerability); format: in vivo; details: 5-10 mg/kg intravenously, three doses over two weeks
# Experimental: For in vivo treatments, a 10 mg/mL stock solution of 17S-FD-895 solubilized in DMSO was used. After randomization, AML-engrafted mice were dosed intravenously with 17S-FD-895 (5-10 mg/kg) or vehicle (for AML-08, vehicle control=15% DMSO in PBS; for AML-37, vehicle control=20% DMSO in PBS) three times over a two-week period, with the first dose given on day 1, the second on day 7, and the third on day 14. For preparation of RNA from human LSC-enriched populations, single cell suspensions from spleen and bone marrow were CD34 double-selected (over two LS selection columns, Miltenyi) and 1-2×10^5 cells were collected in lysis buffer or pooled according to treatment group for serial transplantation assays.
# All animal studies were performed in accordance with UCSD and NIH-equivalent ethical guidelines and were approved by the Institutional Animal Care and Use Committee. Three AML PRIMAGRAFT™ models were established from AML LSC-enriched cell fractions (1-2×10^5 CD34^+ cells) transplanted intrahepatically into neonatal Rag2^−/−γc^−/− as previously described (Abrahamsson et al., 2009), or intravenously into sublethally irradiated adult (6-8 weeks old) NOD/SCID-IL2RG mice (NSGS, Jackson Laboratory). […] After treatment, hematopoietic tissues were analyzed as described following. […]
compound,measurement,setting,value
"CC[C@H](OC)[C@@H](C)[C@H]1O[C@@H]1[C@@H](O)[C@H](C)/C=C/C=C(\C)[C@H]1OC(=O)C[C@H](O)CC[C@@](C)(O)[C@@H](OC(C)=O)/C=C/[C@@H]1C (stereo in doubt) [Formula 17S-FD-895, 17S-FD-895]",RFP/GFP ratios,"[1]; HEK293 cells, 0.01-10 μM, 24 hrs, flow cytometry MFI",dose-dependent increase
same,RFP fluorescence by confocal microscopy,"[1]; reporter-transfected HEK293 cells, 1-10 μM, live-cell / time-lapse",increase in RFP fluorescence; also recorded: increased RFP/GFP expression; also recorded: increased RFP fluorescence
same,tolerability / weight changes,[2],"well tolerated, with no significant weight changes detected"
